# Reference: patent publication US20230226049A1, “ACALABRUTINIB MALEATE DOSAGE FORMS” (Acerta Pharma B.V., priority 2020, published 2023)
# Experiments:
# [1] = physchem; details: pH 6, water
# Protocol: In addition, the solubility of acalabrutinib maleate was measured in buffered solutions representative of the media used for dissolution of acalabrutinib maleate tablets.
# [2] = Physicochemical properties of acalabrutinib maleate monohydrate (Table 2)
# [3] = Two-stage pH shift dissolution of acalabrutinib salts; format: physicochemical; details: pH shift method, both starting media; FIGS. 11 and 12
# Protocol: Phosphate, oxalate, and maleate salts of acalabrutinib were evaluated using a two-stage in vitro dissolution method known as a pH shift method. The initial medium was either deionized water or a simulated gastric fluid containing hydrochloric acid and sodium chloride and pH adjusted to 1.8. After the salts were in the initial medium for 30 minutes, the medium was then changed to a FaSSIF-V2 medium by addition of a double strength concentrate to give a final pH of 6.5. The FaSSIF-V2 medium contained a sodium phosphate buffer with sodium chloride, sodium taurocholate, and lecithin. The dissolution testing was conducted using USP dissolution apparatus 2 (paddle) operating at 50 RPM at 37 ± 0.5° C. in 250 mL of medium for first 30 minutes and then in 500 mL of medium post-shift. Samples from the dissolution medium were pulled from the aqueous phase at predetermined time points and assayed by HPLC. FIGS. 2 and 3 show the dissolution profiles of the three salts in the simulated gastric fluid/FaSSIF-V2 media and the deionized water/FaSSIF-V2 media, respectively.
# In view of the formulation challenges associated with the physical properties of the phosphate and oxalate salts, the maleate salt was re-tested in the previously described pH shift dissolution method after undergoing particle size reduction. […]
SMILES,solubility [1] [µg/mL],pKa ([2]; acidic),"solubility ([2]; aqueous buffer, @ pH 8 Free Base, read-out: Intrinsic solubility) [µg/mL]",Dissolution profile relative to unmilled maleate salt [3]
"CC#CC(=O)N1CCC[C@H]1c1nc(-c2ccc(C(=O)Nc3ccccn3)cc2)c2c(N)nccn12 [acalabrutinib free base, 4-{8-amino-3-[(2S)-1-(but-2-ynoyl)pyrrolidin-2-yl]imidazo[1,5-a]pyrazin-1-yl}-N-(pyridin-2-yl)benzamide]",< 100,12.1,48,
CC#CC(=O)N1CCC[C@H]1c1nc(-c2ccc(C(=O)Nc3ccccn3)cc2)c2c(N)nccn12.O=C(O)/C=C\C(=O)O [micronized maleate salt],,,,significantly improved
